Values quoted from earlier work, collected in PMC8216436, “Molecular docking and statistical optimization of taurocholate-stabilized galactose anchored bilosomes for the enhancement of sofosbuvir absorption and hepatic relative targeting efficiency” (Drug Delivery, 2020).

What was measured:
[1] = 2017
P-glycoprotein (P-gp) = tested on: P-glycoprotein (P-gp); design: method as in Shen et al., 2019; conditions: efflux from GIT membrane cells and hepatocytes; ref Shen et al., 2019
[2] = oral, ref Rodríguez-Torres, 2013, Kirby et al., 2015, Cuenca-Lopez et al.

For `CC(C)OC(=O)[C@H](C)N[P@](=O)(OC[C@H]1O[C@@H](n2ccc(=O)[nH]c2=O)[C@](C)(F)[C@@H]1O)Oc1ccccc1` [Sofosbuvir], the “administered dose absorbed through the portal circulation” value [1, 2] is given as 36.4%, the “hepatic availability of the administered dose” value [1, 2] is given as 26.94% and the hepatic extraction [1, 2] is given as 74%. For the same compound, the volume of distribution ([1]; ref Bhatia et al., 2014, Reznik & Ashby) was 127 L, the “P-glycoprotein (P-gp) substrate” value (P-glycoprotein (P-gp)) was “substrate” and the “biopharmaceutics classification system class” value (high solubility and low permeability, ref Kirby et al., 2015) was “class III”. For the same compound, the partition coefficient (ref Amidon et al., 1995) was “about 1.6”, the solubility (ref Amidon et al., 1995) was no less than 2000 µg/mL and the pKa (weak acid, ref Amidon et al., 1995) was 9.6.
